According to US20190183910A1, “ENHANCING DNA REPAIR AND PREVENTING AGING AND ITS CONSEQUENCES IN REPRODUCTIVE AND OTHER CELLS” (NEW YORK MEDICAL COLLEGE, priority 2016, published 2019):

Columns and labels:
[1] = test system: mouse sperm; assay: DNA DSBs by γH2AX expression in S1P-treated mouse sperm; type: cell-based; conditions: for DNA DSBs as reported by γH2AX expression: culture 1 hour, n=9, mean±SEM
Description: (§1) Treatment was performed with genotoxic stress (1 mM H2O2), S1P (200 μM), and S1P with genotoxic stress and control in culture for one hour. Also, the use of an ATM inhibitor was utilized (10 μM) (KU-55593, Abcam) (Li et al., 2014). We assessed DNA damage, apoptosis, and chromatin integrity. We also studied the DNA DSB repair gene expression by qRT-PCR in sperm lysates.
DNA damage assessment of testicular tissue from mice utilized a Ser139 phosphorylation-specific γH2AX antibody (IHC-00059; Bethyl Laboratories) performed with enzymatic diaminobenzidine staining (Vector). Histone H2AX, one of the several variants of the nucleosome core histone H2A, becomes phosphorylated on Ser139 in response to DSBs (γH2AX). Within seconds of DSB formation, γH2AX foci are formed at the site of DNA damage, which can be detected by confocal microscopy or immunohistochemistry to quantify DNA damage. Foci of γH2AX represent DDR in a 1:1 manner, enabling sensitive quantification of potential DSBs (Katsube et al., 2014). Primordial follicles containing a γH2AX-positive oocyte were considered to be DNA-damaged (Rogakou et al., 1998). Sperm were assessed for DNA damage with antibody to γH2AX (613402; BioLegend) and secondary antibody Alexa Fluor 488 (A-11029; Invitrogen), followed by nuclear counterstaining with diamidino-2-phenylindole (DAPI; Fisher Scientific). Immunofluorescence for SD sperm samples was measured by FACScan flow cytometer (Becton-Dickinson) or laser scanning cytometry (Halicka et al., 2008).

[2] = test system: BRCA1; assay: qRT-PCR DNA DSB repair gene expression in mouse sperm lysates, BRCA1; type: cell-based
Description: as §1
(§2) Sperm pellets previously snap-frozen in PBS were thawed. RNA was extracted using the trizol method (Rio et al., 2010). The quality and quantity of the RNA were measured with NanoDrop 2000 from Thermo Scientific. RNA (2 μg) from each sample was taken for reverse transcription with dTVN and N9 primers and SuperScript III reverse transcriptase, all procured from Invitrogen. The resulting cDNA was used to perform real-time qPCR with SYBR Green on an Applied Biosystems 7900HT Real-Time PCR machine was used. To determine the relative expression of various DNA repair genes in mouse sperm, we used the ΔΔCt method, which makes use of the expression of housekeeping genes. GAPDH was used as housekeeping gene. Primers were procured from Integrated DNA technologies (IDT) (Table 3).

[3] = test system: DMC1; assay: qRT-PCR DNA DSB repair gene expression in mouse sperm lysates, DMC1; type: cell-based
Description: as §1, §2

[4] = test system: MRE11; assay: qRT-PCR DNA DSB repair gene expression in mouse sperm lysates, MRE11; type: cell-based
Description: as §1, §2

[5] = test system: mouse sperm; assay: Neutral comet assay on mouse sperm; type: cell-based; conditions: for percent tail DNA, neutral comet: mouse sperm, n=9, mean±SEM
Description: as §1
Slides were prepared 48 hours prior to experimentation by coating normal glass microscope slides with 500 μl normal melting point agar (NMPA, 0.5% w/v in PBS) solution and left to dry at room temperature for no less than 48 hours. Once samples were obtained, 10 μl of mouse sperm suspension was mixed with 90 μl of 0.5% low melting point agar (LMPA). Then, this 100 μl solution was added to the NMPA-coated slides. Coverslips were added and slides were placed on a metallic tray on ice and in the dark for 5 minutes. The cover slips were then removed and another layer of LMPA was added. Cover slips were subsequently replaced before the LMPA hardened. Slides were then kept in the dark on ice again for another 5 minutes. After ten minutes, the cover slips were removed and slides were placed in staining jars containing ice cold lysing solution (2.5 M NaCl, 100 mM EDTA, sodium N-laurylsacrosinate [SLS]. [1% w/v] and 10 mM Trizma base pH10, and 1% Triton-X-100 and 10% DMSO [immediately adding before use]) for 1 hour at 4° C. in a dark place.
After this lysis step, the slides were washed three times for 5 minutes with the cold electrophoresis buffer (0.089 M Tris base, 0.089 M boric acid and 2 mM EDTA [pH 8.3]), and then placed flatly in the electrophoresis tank face up for 30 minutes. This incubation period was used to achieve the unwinding of the DNA. Electrophoresis was then performed at 18 V for 60 minutes. After this, slides were washed twice in PBS for 5 minutes each. Before analysis could occur, the sperm within the slides needed to be fixed by two 10 minute washes in ethanol, and then air drying at room temperature. Ethidium bromide (50 μl at 10 μg/ml in water) was then added on the slide, and sealed with a cover slip. Slides were kept moist, wrapped in aluminum foil to prevent light exposure, and stored at 4° C. until analysis (Smart et al., 2008).
Slides from both alkaline and neutral comets were imaged by fluorescence microscopy using a Nikon OPTIPHOT microscope. ImageJ was used for comet assay analysis, which calculated tail length, tail moment, and % of DNA in the tail. […] The comets were “on scale” for the calculations to be correct (the brightest pixels of interest were below 255 on an 8-bit scale). […] To analyze the slides, an oval around the sperm head was drawn and calculated and then an oval around the sperm tail was drawn and calculated. […] It was calculated as the Pythagorean distance between two points. […]

[6] = test system: human sperm; assay: Neutral comet assay on human sperm; type: cell-based
[7] = in vivo continuous or intermittent administration to mice (Soleimani et al., 2011; Li et al, 2014); cited from earlier work
[8] = test system: male germ cells; conditions: S1P treatment to mouse testes (Otala et al., 2004); cited from earlier work
[9] = S1P in the presence of genotoxic stress, n=9, mean±SEM
[10] = S1P treatment with ATM inhibitor

CCCCCCCCCCCCC/C=C/[C@@H](O)[C@@H](N)COP(=O)(O)O [S1P, sphingosine 1 phosphate]
DNA DSBs as reported by γH2AX expression ([1]; S1P (200 μM) in the presence of genotoxic stress (1 mM H2O2)): 8.29±1.45 | DNA DSBs as reported by γH2AX expression ([1]; S1P alone (200 μM)): 8.94±1.48 | DNA integrity (protective effect of S1P) ([1]; in the presence of an ATM inhibitor (10 μM KU-55593), n=9): ATM inhibition reversed the protective effects | BRCA1 expression (qRT-PCR) ([2]; S1P alone, n=9, mean±SEM): 0.471±0.602 | BRCA1 expression (qRT-PCR) [2, 9]: 0.755±0.378 | BRCA1 expression (qRT-PCR) [2, 10]: blocked the S1P induced increase | DMC1 expression (qRT-PCR) ([3]; S1P alone, with ATM inhibitor, n=8, mean±SEM): 0.027±0.014 | DMC1 expression (qRT-PCR) [3, 9]: 0.029±0.04 | DMC1 expression (qRT-PCR) ([3]; S1P with genotoxic stress, with ATM inhibitor, n=8, mean±SEM): 0.0035±0.005 | MRE11 expression (qRT-PCR) [4, 10]: no significant difference | MRE11 expression (qRT-PCR) ([4]; S1P treatment, no ATM inhibitor): no significant difference | DNA damage, neutral comet ([5]; S1P-treated mouse sperm with ATM inhibitor): no significant difference | percent tail DNA, neutral comet ([5]; S1P alone, without ATM inhibitor): 18.5±0.59% | percent tail DNA, neutral comet ([5]; S1P with H2O2, without ATM inhibitor): 18.8±0.73% | DNA damage, neutral comet ([6]; S1P-treated human sperm with ATM inhibitor): no significant difference | DNA damage, neutral comet ([6]; S1P-treated human sperm without ATM inhibitor): no significant difference | side effects [7]: no detectable side effects | male germ cell loss by radiation-induced injury [8]: decreased
